# What was measured:
# [1] = system: mononuclear leukocytes of long-term survivors of acute lymphoblastic leukemia (ALL); assay: cell surface phenotyping by flow cytometry, cells of ALL patients; assay type: cell-based, human; details: cells of leukemic patients in remission/long-term ALL survivors; compared to media only; days 1-4
# Procedure: (§1) Subject to parental/patient consent, approximately 15 ml of blood was obtained from leukemic patients in remission, long-term survivors of acute lymphoblastic leukemia and normal volunteers. Additional “normal” control samples were collected from the first drawing of blood in sickle cell patients undergoing manual partial exchange transfusion, or samples of blood discarded by the blood bank from normal donors. Patient blood was placed into heparin (1000 USP u/ml). Peripheral blood mononuclear cells (PBMC) were isolated by density gradient centrifugation (400×g, 40 minutes, and 18° C.) with Ficoll Paque Plus (GE Healthcare, Amersham Biosciences; Uppsala, Sweden), followed by washing with phosphate-buffered saline. Plasma was also collected simultaneously and stored at −80° C. until use. […]
# (§2) Frozen specimens were thawed in a 37° C. water bath with continuous agitation. […] These cells (frozen/thawed PBMC) were then assessed for viability by trypan blue dye exclusion, counted, and re-suspended in the medium for assay. […]
# (§3) At time intervals of 24, 48, 72 and 96 hrs, cell surface phenotyping was performed by flow cytometry. […] Acquisition and Analysis was carried out on fluorescence activated cell sorting (FACS) BD FACS Canto II using FACSDiva v 6.1.2. […] Percentage of cells positive for CD10CD19, CD34CD19 and CD34CD117 were recorded.
# [2] = system: mononuclear cells from "normal"/sickle cell patients (controls); assay: cell surface phenotyping by flow cytometry, control cells; assay type: cell-based, human; details: compared to media only, days 1-4
# Procedure: as §1, §2, §3
substance,measurement,setting,value
Aflotoxin B1 [aflotoxin (AT)],"development of cell surface phenotypes characteristic of ALL (CD10/CD19, CD34/CD19, CD34/CD117)",[1],indiscriminately induced increased development
same,"development of cell surface phenotypes characteristic of ALL (CD10/CD19, CD34/CD19, CD34/CD117)",[2],indiscriminately induced increased development

# From US9783785B2, “Screening methods for detection of susceptibility to leukemia and lymphomas” (priority 2010, dated 2017)
